Measured values as given in ChEMBL document CHEMBL1135206, “Albumin affinity tags increase peptide half-life in vivo” (Bioorg Med Chem Lett, 2002).
*1 amine or outer side, *2 acyl side, *3 side chain or, on linkers, in order; H or OH if unused. Where a SMILES comes first, the peptide text is derived from it. Bridges are numbered along the chain shown (N, C = ends). [ ]: non-standard residue; d: D form. The star is where a group is joined. X3 = C[C@@H](C(=O)[*:2])N(Cc1ccccc1OC(F)(F)F)[*:1]; X5 = C[C@@H](C(=O)[*:2])N(Cc1cccc2ccccc12)[*:1]; 2Naphthylsulfonyl = O=S(=O)(c1ccc2ccccc2c1)*; X2 = O=C(CCC(=O)*)NS(=O)(=O)c1ccc2ccccc2c1; Benzoyl(4-Ph) = O=C(c1ccc(-c2ccccc2)cc1)*; Quinoline3carbonyl = O=C(c1cnc2ccccc2c1)*; X6 = O=C(c1ccc(-c2ccccc2[N+](=O)[O-])o1)*; Mts = Cc1cc(C)c(S(=O)(=O)*)c(C)c1; Quinaldoyl = O=C(c1ccc2ccccc2n1)*; NH(4-Cl-phenyl) = Clc1ccc(N*)cc1; CO = O=C([*:1])[*:2]; X4 = Cc1cccc(N*)c1

Experiments:
Albumin = Albumin (Homo sapiens, UniProt P02768); assay: In vitro binding affinity for human serum albumin.; design: unit not given here
Sequence of Albumin (P02768 whole entry): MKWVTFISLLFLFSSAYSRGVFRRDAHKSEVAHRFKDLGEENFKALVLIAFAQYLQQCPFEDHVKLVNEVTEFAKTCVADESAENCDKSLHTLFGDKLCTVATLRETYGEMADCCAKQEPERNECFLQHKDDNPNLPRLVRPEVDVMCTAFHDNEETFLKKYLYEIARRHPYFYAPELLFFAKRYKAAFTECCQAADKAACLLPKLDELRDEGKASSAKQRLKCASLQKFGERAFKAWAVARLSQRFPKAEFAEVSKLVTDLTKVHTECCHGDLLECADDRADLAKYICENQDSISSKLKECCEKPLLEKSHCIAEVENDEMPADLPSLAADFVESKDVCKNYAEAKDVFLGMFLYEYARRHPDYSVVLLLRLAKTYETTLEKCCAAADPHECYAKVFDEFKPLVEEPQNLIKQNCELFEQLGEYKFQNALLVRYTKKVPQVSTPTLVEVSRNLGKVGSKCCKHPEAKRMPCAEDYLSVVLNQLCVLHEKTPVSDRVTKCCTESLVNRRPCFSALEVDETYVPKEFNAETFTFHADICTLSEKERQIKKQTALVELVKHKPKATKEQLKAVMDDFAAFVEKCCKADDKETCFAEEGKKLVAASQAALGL

Coagulation factor VII = biological target: T1, Coagulation factor VII (Homo sapiens, UniProt P08709); assay: Inhibition of amino terminally biotinylated E-76 peptide binding to immobilized fVIIa
T1 sequence (P08709 whole entry): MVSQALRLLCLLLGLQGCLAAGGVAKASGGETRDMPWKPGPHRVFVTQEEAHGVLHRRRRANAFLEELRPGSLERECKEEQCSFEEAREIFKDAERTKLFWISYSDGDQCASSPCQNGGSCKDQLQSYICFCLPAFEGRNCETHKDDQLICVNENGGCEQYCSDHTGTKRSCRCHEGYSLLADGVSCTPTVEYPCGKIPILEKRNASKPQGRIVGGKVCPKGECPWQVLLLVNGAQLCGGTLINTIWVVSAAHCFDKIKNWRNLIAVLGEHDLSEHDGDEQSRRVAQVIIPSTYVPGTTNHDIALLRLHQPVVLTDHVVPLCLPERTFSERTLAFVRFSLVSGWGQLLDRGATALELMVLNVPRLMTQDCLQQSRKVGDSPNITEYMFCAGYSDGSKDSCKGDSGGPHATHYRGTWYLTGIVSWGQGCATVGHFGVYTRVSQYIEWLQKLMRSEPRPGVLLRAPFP

[1] = Clearance in male New Zealand white rabbits after administration via an indwelling catheter in an ear vein at 5 mg/kg; assay type: ADME, organism-based, Oryctolagus cuniculus; design: dose 5 mg/kg; conditions: rabbit, in vivo, iv
[2] = Mean retention time in male New Zealand white rabbits after administration via an indwelling catheter in an ear vein at 5 mg/kg; assay type: ADME, organism-based, Oryctolagus cuniculus; design: dose 5 mg/kg; conditions: rabbit, in vivo, iv
[3] = Plasma half-life in male New Zealand white rabbits after administration via an indwelling catheter in an ear vein at 5 mg/kg; assay type: ADME, organism-based, Oryctolagus cuniculus; design: dose 5 mg/kg; conditions: rabbit, iv
[4] = Clearance in male New Zealand white rabbits after i.v. administration at 2.0 mg/kg; assay type: ADME, organism-based, Oryctolagus cuniculus; design: dose 2 mg/kg, route intravenous; conditions: rabbit, in vivo, iv
[5] = Mean retention time in male New Zealand white rabbits after i.v. administration at 2.0 mg/kg; assay type: ADME, organism-based, Oryctolagus cuniculus; design: dose 2 mg/kg, route intravenous; conditions: rabbit, in vivo, iv
[6] = Plasma half-life in male New Zealand white rabbits after i.v. administration at 2.0 mg/kg; assay type: ADME, organism-based, Oryctolagus cuniculus; design: dose 2 mg/kg, route intravenous; conditions: rabbit, iv

Row | SMILES | Binding affinity (Albumin) | IC50 (Coagulation factor VII) [nM] | other results
1 | CC[C@H](C)[C@@H]1NC(=O)[C@H](CCCNC(=N)N)NC(=O)[C@@H]2CCCN2C(=O)[C@H](CC(N)=O)NC(=O)[C@H](CC(=O)O)NC(=O)[C@@H](NC(=O)[C@H](CC(C)C)NC(=O)[C@H](C)NS(=O)(=O)c2ccc3ccccc3c2)CSSC[C@@H](C(=O)N[C@@H](CCC(N)=O)C(=O)N[C@@H](Cc2ccccc2)C(=O)N[C@H](C(=O)N[C@@H](CCC(=O)O)C(=O)NCC(N)=O)C(C)C)NC(=O)[C@H](Cc2ccc(O)cc2)NC(=O)[C@H](Cc2c[nH]c3ccccc23)NC(=O)[C@H](CCCNC(=N)N)NC(=O)[C@H](CC(=O)O)NC1=O (2Naphthylsulfonyl-ALCDNPRIDRWYCQFVEG-NH2; disulfide 3-13) | 0.92 | 20.4 | 
2 | CC[C@H](C)[C@@H]1NC(=O)[C@H](CCCN=C(N)N)NC(=O)[C@@H]2CCCN2C(=O)[C@H](CC(N)=O)NC(=O)[C@H](CC(=O)O)NC(=O)[C@@H](NC(=O)[C@H](CC(C)C)NC(=O)[C@H](C)NC(C)=O)CSSC[C@@H](C(=O)N[C@@H](CCC(N)=O)C(=O)N[C@@H](Cc2ccccc2)C(=O)N[C@H](C(=O)N[C@@H](CCC(=O)O)C(=O)NCC(N)=O)C(C)C)NC(=O)[C@H](Cc2ccc(O)cc2)NC(=O)[C@H](Cc2c[nH]c3ccccc23)NC(=O)[C@H](CCCN=C(N)N)NC(=O)[C@H](CC(=O)O)NC1=O (Ac-ALCDNPRIDRWYCQFVEG-NH2; disulfide 3-13) | 0.21 | 1.1 | clearance [1]: 1.98 L/h/kg; MRT [2]: 3.2 min; half-life [3]: 5 min
3 | CC[C@H](C)[C@@H]1NC(=O)[C@H](CCCN=C(N)N)NC(=O)[C@@H]2CCCN2C(=O)[C@H](CC(N)=O)NC(=O)[C@H](CC(=O)O)NC(=O)[C@@H](NC(=O)[C@H](CC(C)C)NC(=O)[C@H](C)NCc2ccccc2OC(F)(F)F)CSSC[C@@H](C(=O)N[C@@H](CCC(N)=O)C(=O)N[C@@H](Cc2ccccc2)C(=O)N[C@H](C(=O)N[C@@H](CCC(=O)O)C(=O)NCC(N)=O)C(C)C)NC(=O)[C@H](Cc2ccc(O)cc2)NC(=O)[C@H](Cc2c[nH]c3ccccc23)NC(=O)[C@H](CCCN=C(N)N)NC(=O)[C@H](CC(=O)O)NC1=O (H-[X3]LCDNPRIDRWYCQFVEG-NH2; disulfide 3-13) | 0.93 | 13.4 | 
4 | CC[C@H](C)[C@@H]1NC(=O)[C@H](CCCNC(=N)N)NC(=O)[C@@H]2CCCN2C(=O)[C@H](CC(N)=O)NC(=O)[C@H](CC(=O)O)NC(=O)[C@@H](NC(=O)[C@H](CC(C)C)NC(=O)[C@H](C)NCc2cccc3ccccc23)CSSC[C@@H](C(=O)N[C@@H](CCC(N)=O)C(=O)N[C@@H](Cc2ccccc2)C(=O)N[C@H](C(=O)N[C@@H](CCC(=O)O)C(=O)NCC(N)=O)C(C)C)NC(=O)[C@H](Cc2ccc(O)cc2)NC(=O)[C@H](Cc2c[nH]c3ccccc23)NC(=O)[C@H](CCCNC(=N)N)NC(=O)[C@H](CC(=O)O)NC1=O (H-[X5]LCDNPRIDRWYCQFVEG-NH2; disulfide 3-13) | 0.69 | 1.6 | 
5 | CC[C@H](C)[C@@H]1NC(=O)[C@H](CCCNC(=N)N)NC(=O)[C@@H]2CCCN2C(=O)[C@H](CC(N)=O)NC(=O)[C@H](CC(=O)O)NC(=O)[C@@H](NC(=O)[C@H](CC(C)C)NC(=O)[C@H](C)NS(=O)(=O)c2c(C)cc(C)cc2C)CSSC[C@@H](C(=O)N[C@@H](CCC(N)=O)C(=O)N[C@@H](Cc2ccccc2)C(=O)N[C@H](C(=O)N[C@@H](CCC(=O)O)C(=O)NCC(N)=O)C(C)C)NC(=O)[C@H](Cc2ccc(O)cc2)NC(=O)[C@H](Cc2c[nH]c3ccccc23)NC(=O)[C@H](CCCNC(=N)N)NC(=O)[C@H](CC(=O)O)NC1=O (Mts-ALCDNPRIDRWYCQFVEG-NH2; disulfide 3-13) | 0.82 | 10 | 
6 | CC[C@H](C)[C@@H]1NC(=O)[C@H](CCCN=C(N)N)NC(=O)[C@@H]2CCCN2C(=O)[C@H](CC(N)=O)NC(=O)[C@H](CC(=O)O)NC(=O)[C@@H](NC(=O)[C@H](CC(C)C)NC(=O)[C@H](C)NC(=O)c2ccc3ccccc3n2)CSSC[C@@H](C(=O)N[C@@H](CCC(N)=O)C(=O)N[C@@H](Cc2ccccc2)C(=O)N[C@H](C(=O)N[C@@H](CCC(=O)O)C(=O)NCC(N)=O)C(C)C)NC(=O)[C@H](Cc2ccc(O)cc2)NC(=O)[C@H](Cc2c[nH]c3ccccc23)NC(=O)[C@H](CCCN=C(N)N)NC(=O)[C@H](CC(=O)O)NC1=O (Quinaldoyl-ALCDNPRIDRWYCQFVEG-NH2; disulfide 3-13) | 0.64 | 2.9 | 
7 | CC[C@H](C)[C@@H]1NC(=O)[C@H](CCCN=C(N)N)NC(=O)[C@@H]2CCCN2C(=O)[C@H](CC(N)=O)NC(=O)[C@H](CC(=O)O)NC(=O)[C@@H](NC(=O)[C@H](CC(C)C)NC(=O)[C@H](C)NC(=O)c2cnc3ccccc3c2)CSSC[C@@H](C(=O)N[C@@H](CCC(N)=O)C(=O)N[C@@H](Cc2ccccc2)C(=O)N[C@H](C(=O)N[C@@H](CCC(=O)O)C(=O)NCC(N)=O)C(C)C)NC(=O)[C@H](Cc2ccc(O)cc2)NC(=O)[C@H](Cc2c[nH]c3ccccc23)NC(=O)[C@H](CCCN=C(N)N)NC(=O)[C@H](CC(=O)O)NC1=O (Quinoline3carbonyl-ALCDNPRIDRWYCQFVEG-NH2; disulfide 3-13) | 0.64 | 11.8 | 
8 | CC[C@H](C)[C@@H]1NC(=O)[C@H](CCCN=C(N)N)NC(=O)[C@@H]2CCCN2C(=O)[C@H](CC(N)=O)NC(=O)[C@H](CC(=O)O)NC(=O)[C@@H](NC(=O)[C@H](CC(C)C)NC(=O)[C@H](C)NC(=O)CCC(=O)NS(=O)(=O)c2ccc3ccccc3c2)CSSC[C@@H](C(=O)N[C@@H](CCC(N)=O)C(=O)N[C@@H](Cc2ccccc2)C(=O)N[C@H](C(=O)N[C@@H](CCC(=O)O)C(=O)NCC(N)=O)C(C)C)NC(=O)[C@H](Cc2ccc(O)cc2)NC(=O)[C@H](Cc2c[nH]c3ccccc23)NC(=O)[C@H](CCCN=C(N)N)NC(=O)[C@H](CC(=O)O)NC1=O (X2-ALCDNPRIDRWYCQFVEG-NH2; disulfide 3-13) | 0.97 | 1 | clearance [4]: 0.096 L/h/kg; MRT [5]: 35 min; half-life [6]: 30 min
9 | CC[C@H](C)[C@@H]1NC(=O)[C@H](CCCNC(=N)N)NC(=O)[C@@H]2CCCN2C(=O)[C@H](CC(N)=O)NC(=O)[C@H](CC(=O)O)NC(=O)[C@@H](NC(=O)[C@H](CC(C)C)NC(=O)[C@H](C)NC(=O)c2ccc(-c3ccccc3[N+](=O)[O-])o2)CSSC[C@@H](C(=O)N[C@@H](CCC(N)=O)C(=O)N[C@@H](Cc2ccccc2)C(=O)N[C@H](C(=O)N[C@@H](CCC(=O)O)C(=O)NCC(N)=O)C(C)C)NC(=O)[C@H](Cc2ccc(O)cc2)NC(=O)[C@H](Cc2c[nH]c3ccccc23)NC(=O)[C@H](CCCNC(=N)N)NC(=O)[C@H](CC(=O)O)NC1=O (X6-ALCDNPRIDRWYCQFVEG-NH2; disulfide 3-13) | 0.79 | 1 | 
10 | CC[C@H](C)[C@@H]1NC(=O)[C@H](CCCN=C(N)N)NC(=O)[C@@H]2CCCN2C(=O)[C@H](CC(N)=O)NC(=O)[C@H](CC(=O)O)NC(=O)[C@@H](NC(=O)[C@H](CC(C)C)NC(=O)[C@H](C)NC(=O)c2ccc(-c3ccccc3)cc2)CSSC[C@@H](C(=O)N[C@@H](CCC(N)=O)C(=O)N[C@@H](Cc2ccccc2)C(=O)N[C@H](C(=O)N[C@@H](CCC(=O)O)C(=O)NCC(N)=O)C(C)C)NC(=O)[C@H](Cc2ccc(O)cc2)NC(=O)[C@H](Cc2c[nH]c3ccccc23)NC(=O)[C@H](CCCN=C(N)N)NC(=O)[C@H](CC(=O)O)NC1=O ({Benzoyl(4-Ph)}-ALCDNPRIDRWYCQFVEG-NH2; disulfide 3-13) | 0.62 | 4 | clearance [1]: 0.258 L/h/kg; MRT [2]: 17 min; half-life [3]: 15 min
11 | CC[C@H](C)[C@@H]1NC(=O)[C@H](CCCN=C(N)N)NC(=O)[C@@H]2CCCN2C(=O)[C@H](CC(N)=O)NC(=O)[C@H](CC(=O)O)NC(=O)[C@@H](NC(=O)[C@H](CC(C)C)NC(=O)[C@H](C)NC(=O)Nc2ccc(Cl)cc2)CSSC[C@@H](C(=O)N[C@@H](CCC(N)=O)C(=O)N[C@@H](Cc2ccccc2)C(=O)N[C@H](C(=O)N[C@@H](CCC(=O)O)C(=O)NCC(N)=O)C(C)C)NC(=O)[C@H](Cc2ccc(O)cc2)NC(=O)[C@H](Cc2c[nH]c3ccccc23)NC(=O)[C@H](CCCN=C(N)N)NC(=O)[C@H](CC(=O)O)NC1=O ({NH(4-Cl-phenyl)-CO}-ALCDNPRIDRWYCQFVEG-NH2; disulfide 3-13) | 0.65 | 13.4 | 
12 | CC[C@H](C)[C@@H]1NC(=O)[C@H](CCCNC(=N)N)NC(=O)[C@@H]2CCCN2C(=O)[C@H](CC(N)=O)NC(=O)[C@H](CC(=O)O)NC(=O)[C@@H](NC(=O)[C@H](CC(C)C)NC(=O)[C@H](C)NC(=O)Nc2cccc(C)c2)CSSC[C@@H](C(=O)N[C@@H](CCC(N)=O)C(=O)N[C@@H](Cc2ccccc2)C(=O)N[C@H](C(=O)N[C@@H](CCC(=O)O)C(=O)NCC(N)=O)C(C)C)NC(=O)[C@H](Cc2ccc(O)cc2)NC(=O)[C@H](Cc2c[nH]c3ccccc23)NC(=O)[C@H](CCCNC(=N)N)NC(=O)[C@H](CC(=O)O)NC1=O ({X4-CO}-ALCDNPRIDRWYCQFVEG-NH2; disulfide 3-13) | 0.59 | 1.8 | 
